From patent publication US10344054B2, “Angiotensin-1-receptor antagonists” (Ferring B.V., priority 2016, dated 2019)
Starred links: 1 amine or outer side, 2 acyl side, 3 side chain; linkers in the order of their positions; H or OH if unused. Non-standard residues stand in square brackets, D forms with d. Residues, ends and D or L forms follow the SMILES beside them. X1 = O=C(CN(C[C@H](O)[C@@H](O)[C@H](O)[C@H](O)CO)[*:1])[*:2]; dPhe(2-Me) = Cc1ccccc1C[C@@H](N)C(=O)O; Chg = N[C@H](C(=O)O)C1CCCCC1

Tests used:
hAT1R [1] = target: T1, hAT1R (Homo sapiens, UniProt P30556); assay: FLIPR calcium flux assay, Part II: antagonist activity against Angiotensin II; format: cell-based; settings: for Emax: read-out: hAT1R Antagonist Efficacy Antag (%) Ave; for IC50: read-out: hAT1R Antagonist IC50 Ave; as to hAT1R Antagonist Efficacy Antag (%) Ave: Angiotensin II 10 nM final concentration
T1 sequence (P30556 1-359): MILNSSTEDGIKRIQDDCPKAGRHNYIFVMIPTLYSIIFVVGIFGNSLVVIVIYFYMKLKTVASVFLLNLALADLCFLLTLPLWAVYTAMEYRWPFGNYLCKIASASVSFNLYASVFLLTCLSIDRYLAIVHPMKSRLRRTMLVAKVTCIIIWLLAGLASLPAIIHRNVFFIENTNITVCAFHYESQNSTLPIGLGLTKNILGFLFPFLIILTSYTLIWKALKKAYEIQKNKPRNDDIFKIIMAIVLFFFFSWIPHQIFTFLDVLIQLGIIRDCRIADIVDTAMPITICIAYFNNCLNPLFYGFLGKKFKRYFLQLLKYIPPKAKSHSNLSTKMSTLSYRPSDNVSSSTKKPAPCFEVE

hAT1R [2] = target: T1, hAT1R; assay: FLIPR calcium flux assay, Part I: agonist activity; format: cell-based; settings: ChanTest hAT1R stable cells; % MPE, percent of the maximal possible effect; read-out: hAT1R Agonist Efficacy Agonist (%) Ave

Emax (hAT1R [1]) | IC50 (hAT1R [1]) | Emax (hAT1R [2]) | Structure (SMILES)
101% | 18.6 nM | 6% | Cc1ccccc1C[C@@H](NC(=O)[C@@H]1CCCN1C(=O)[C@H](Cc1c[nH]cn1)NC(=O)[C@@H](NC(=O)[C@H](Cc1ccc(O)cc1)NC(=O)[C@@H](NC(=O)[C@H](CCCNC(=N)N)NC(=O)CNC[C@H](O)[C@@H](O)[C@H](O)[C@H](O)CO)C(C)C)C(C)C)C(=O)O [Compound 45, Glac-Arg-Val-Tyr-Val-His-Pro-(D-Phe(2-Me))—OH] (HELM PEPTIDE1{[O=C(CNC[C@H](O)[C@@H](O)[C@H](O)[C@H](O)CO)[*:2]].R.V.Y.V.H.P.[Cc1ccccc1C[C@@H](N[*:1])C(=O)O]}$$$$V2.0)
100% | 22.2 nM | 6% | Cc1ccccc1C[C@@H](NC(=O)[C@@H]1CCCN1C(=O)[C@H](Cc1c[nH]cn1)NC(=O)[C@@H](NC(=O)[C@H](Cc1ccc(O)cc1)NC(=O)[C@@H](NC(=O)[C@H](CCCNC(=N)N)NC(=O)CNC[C@H](O)[C@@H](O)[C@H](O)[C@H](O)CO)C(C)C)C1CCCCC1)C(=O)O [Compound 46, Glac-Arg-Val-Tyr-Chg-His-Pro-(D-Phe(2-Me))—OH] (H-[X1]RVY[Chg]HP[dPhe(2-Me)]-OH)
99% | – | 42% | CC[C@H](C)[C@H](NC(=O)[C@@H]1CCCN1C(=O)[C@H](Cc1c[nH]cn1)NC(=O)[C@@H](NC(=O)[C@H](Cc1ccc(O)cc1)NC(=O)[C@@H](NC(=O)[C@H](CCCNC(=N)N)NC(=O)CNC)C(C)C)[C@@H](C)CC)C(=O)O [Ref. Cpd. 1, Sar-Arg-Val-Tyr-Ile-His-Pro-Ile-OH, reference compound]
99% | 14.3 nM | 25% | CC[C@H](C)[C@H](NC(=O)[C@H](Cc1ccc(O)cc1)NC(=O)[C@@H](NC(=O)[C@H](CCCNC(=N)N)NC(=O)CNC)C(C)C)C(=O)N[C@@H](Cc1c[nH]cn1)C(=O)N1CCC[C@H]1C(=O)N[C@H](Cc1ccccc1)C(=O)O [Ref. Cpd. 2, Sar-Arg-Val-Tyr-Ile-His-Pro-D-Phe-OH, reference compound]
100% | – | 0.7% | CCCCC(=O)N(Cc1ccc(-c2ccccc2-c2nnn[nH]2)cc1)[C@H](C(=O)O)C(C)C [Ref. Cpd. 4, Valsartan, reference compound]
